In ChEMBL document CHEMBL1201862, “PubChem BioAssay data set” (2004):
Active and inactive are the calls of the source.

Experiments:
BJ [1] = test: growth inhibition of engineered Ras-driven BJ cells – cell-based, alamar blue fluorescence, cherrypicked samples, dose response (AID 2631); assay type: functional; conditions: Homo sapiens;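 further: confirmatory dose-response assay in RAS-dependent BJ fibroblasts engineered with TERT, LT and ST, with cytotoxicity read by fluorescence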
[2] = DRD fibroblast viability loss – cell-based, non-viral oncogenic, luminescence, dose response (AID 1934); assay type: functional; conditions: Homo sapiens
BJ [3] = test: BJ-TERT fibroblast viability loss – cell-based, RAS-independent, luminescence, dose response (AID 1933); assay type: functional; conditions: Homo sapiens
BJ [4] = test: cells; assay type: functional, cell-based; conditions: Homo sapiens
[5] = Luminescence Cell-Based Dose Retest to Confirm Inhibitors of Cancer Stem Cells. [Related pubchem assays (depositor defined):AID2717, AID2721]; assay type: functional; conditions: Homo sapiens
INS1 = test: INS-1E survival protection against cytokine death – cell-based, luminescence, retest, dose response (AID 449756); assay type: functional; conditions: Rattus norvegicus;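 further: cell death triggered by IL-1 beta plus TNF-alpha plus IFN-gamma mixture; protective hits raise ATP signal compared with cytokine alone wells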
BJ [6] = test: BJ-TERT-LT-ST fibroblast viability loss – cell-based, RAS-independent, luminescence, dose response (AID 1935); assay type: functional; conditions: Homo sapiens;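 further: BJ fibroblasts immortalized with TERT plus LT and ST oncogenes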
[7] = target: T1, Nuclear receptor subfamily 0 group B member 1 (Homo sapiens, UniProt P51843); test: Luminescence-based cell-based high throughput dose response assay for inhibitors of the orphan nuclear receptor subfamily 0, group B, member 1 (DAX1; NR0B1). [Related pubchem assays (depositor defined):AID504766, AID504790]; assay type: functional
T1 sequence (P51843 whole entry): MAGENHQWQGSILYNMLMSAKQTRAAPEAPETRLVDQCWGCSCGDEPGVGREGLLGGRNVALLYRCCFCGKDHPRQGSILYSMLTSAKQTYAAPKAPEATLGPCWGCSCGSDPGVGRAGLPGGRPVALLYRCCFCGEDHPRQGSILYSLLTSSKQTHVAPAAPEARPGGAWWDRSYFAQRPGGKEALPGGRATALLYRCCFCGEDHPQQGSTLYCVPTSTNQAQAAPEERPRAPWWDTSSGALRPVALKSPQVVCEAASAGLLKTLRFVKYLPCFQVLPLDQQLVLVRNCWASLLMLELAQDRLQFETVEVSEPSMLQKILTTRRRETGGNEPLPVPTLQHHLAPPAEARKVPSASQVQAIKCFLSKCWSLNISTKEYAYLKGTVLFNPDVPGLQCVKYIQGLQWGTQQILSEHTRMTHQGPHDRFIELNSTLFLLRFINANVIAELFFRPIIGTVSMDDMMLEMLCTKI

HEK293 = test: cells; assay type: functional, cell-based; conditions: Homo sapiens
fMet-Leu-Phe receptor = target: T2, fMet-Leu-Phe receptor (Homo sapiens, UniProt P21462); test: formyl peptide receptor binders – dose response (AID 519); assay type: functional
T2 sequence (P21462 whole entry): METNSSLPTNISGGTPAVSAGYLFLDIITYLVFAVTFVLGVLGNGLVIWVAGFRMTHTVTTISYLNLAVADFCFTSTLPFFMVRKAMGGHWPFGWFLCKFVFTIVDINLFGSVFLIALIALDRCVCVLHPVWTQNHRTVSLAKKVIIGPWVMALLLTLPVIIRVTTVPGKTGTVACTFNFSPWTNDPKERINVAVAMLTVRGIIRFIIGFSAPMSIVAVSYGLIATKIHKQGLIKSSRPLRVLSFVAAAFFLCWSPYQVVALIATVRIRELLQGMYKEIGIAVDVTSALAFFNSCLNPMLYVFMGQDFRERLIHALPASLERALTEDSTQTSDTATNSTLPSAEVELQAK

[8] = bead-based luminescence quenchers, dual-tagged ARNT – biochemical, AlphaScreen, cherry-pick, artefact control for ARNT-TACC3 interaction inhibitor project, dose response (AID 651705); assay type: functional;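 further: AlphaScreen bead proximity signal that flags compounds interfering with the detection technology; potency reflects signal decrease which marks the compound as an assay artifact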
Nonstructural protein 1 = Nonstructural protein 1 (Influenza A virus, UniProt Q194T2); assay type: functional, Influenza A virus (A/California/07/2009(H1N1))
cells = assay type: functional
Phospholipase A2 = Phospholipase A2 (Homo sapiens, UniProt P04054); assay type: functional;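 further: confirmatory dose-response counterscreen on phospholipase A2, testing hits that came from an ultra-high-throughput screen for ATG4B inhibitors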
Cysteine protease ATG4B = target: T3, Cysteine protease ATG4B (Homo sapiens, UniProt Q9Y4P1); assay type: functional;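 further: Fluorescence-based dose-response confirmation assay measuring inhibition of ATG4B activity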
T3 sequence (Q9Y4P1 whole entry): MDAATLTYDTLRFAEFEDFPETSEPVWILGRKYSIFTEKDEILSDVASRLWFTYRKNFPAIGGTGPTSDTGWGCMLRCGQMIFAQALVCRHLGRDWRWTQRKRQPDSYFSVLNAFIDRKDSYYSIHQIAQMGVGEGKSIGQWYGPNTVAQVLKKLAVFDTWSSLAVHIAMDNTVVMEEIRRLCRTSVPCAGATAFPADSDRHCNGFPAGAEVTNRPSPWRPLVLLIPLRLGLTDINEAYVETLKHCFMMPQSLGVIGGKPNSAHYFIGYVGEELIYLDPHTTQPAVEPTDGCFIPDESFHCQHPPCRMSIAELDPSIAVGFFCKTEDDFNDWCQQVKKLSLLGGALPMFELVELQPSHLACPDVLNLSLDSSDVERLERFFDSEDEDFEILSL

Estrogen receptor = target: T4, Estrogen receptor (Homo sapiens, UniProt P03372);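 further: potency for inhibiting coactivator peptide recruitment to the receptor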
T4 sequence (P03372 whole entry): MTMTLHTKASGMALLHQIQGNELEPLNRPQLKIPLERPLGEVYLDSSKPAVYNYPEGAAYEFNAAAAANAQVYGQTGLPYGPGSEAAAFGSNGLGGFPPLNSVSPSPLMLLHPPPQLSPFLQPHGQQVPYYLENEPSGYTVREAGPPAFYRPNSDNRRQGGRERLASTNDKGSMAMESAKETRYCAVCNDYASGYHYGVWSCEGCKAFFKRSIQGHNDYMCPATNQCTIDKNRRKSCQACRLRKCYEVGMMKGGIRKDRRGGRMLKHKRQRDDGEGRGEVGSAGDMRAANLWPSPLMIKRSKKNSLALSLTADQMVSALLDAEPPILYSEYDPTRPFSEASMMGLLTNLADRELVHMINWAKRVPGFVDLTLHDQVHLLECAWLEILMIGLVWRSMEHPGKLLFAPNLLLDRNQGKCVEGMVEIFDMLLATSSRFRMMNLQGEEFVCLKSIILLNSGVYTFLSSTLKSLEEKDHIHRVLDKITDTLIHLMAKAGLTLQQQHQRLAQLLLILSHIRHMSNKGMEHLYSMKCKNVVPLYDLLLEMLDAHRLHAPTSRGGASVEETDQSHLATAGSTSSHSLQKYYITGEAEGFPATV

Fatty acid synthase [9] = target: T5, Fatty acid synthase (Homo sapiens, UniProt P49327); test: inhibition of human FAS-TE enzyme activity – biochemical, endpoint fluorescence intensity, uHTS hits, dose response (AID 624327); assay type: functional;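 further: fluorescence from hydrolysis of an O-methyl fluorescein acyl ester substrate by the enzyme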
[10] = target: T6, Low molecular weight phosphotyrosine protein phosphatase (Homo sapiens, UniProt P24666); assay type: functional; conditions: read-out: IC50_Mean;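 further: Dose-response confirmation assay measuring inhibition of LMPTP enzyme activity by fluorescence intensity read-out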
T6 sequence (P24666 whole entry): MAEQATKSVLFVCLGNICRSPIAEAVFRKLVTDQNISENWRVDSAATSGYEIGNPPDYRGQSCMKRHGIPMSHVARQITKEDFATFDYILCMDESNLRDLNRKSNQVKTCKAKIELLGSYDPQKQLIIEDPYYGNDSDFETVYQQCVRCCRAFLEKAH

Fatty acid synthase [11] = target: T5, Fatty acid synthase; test: inhibition of human FAS-TE enzyme activity – biochemical, kinetic fluorescence intensity, dose response (AID 624326); assay type: functional;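 further: rate of fluorescence rise from hydrolysis of a fluorogenic O-methyl fluorescein ester substrate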
[12] = microbe, parasite or virus in culture; assay type: functional; conditions: Mycobacterium tuberculosis
[13] = activation of miR-122 Renilla sensor silencing – cell-based, Huh7 psiCHECK-miR122, Renilla luciferase, cherry-picked, dose response (AID 651956); assay type: functional;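 further: huh7 hepatoma cells stably carrying a psiCHECK-2 miR-122 sensor plasmid; renilla luciferase signal reporting endogenous miR-122 activity after 48 h compound exposure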
[14] = general mammalian cell viability loss – inhibitor set, cherry-pick, set 2, cytotoxicity control for miR-122 modulator project, dose response (AID 720697); assay type: functional, cell-based
Beta-galactosidase = Beta-galactosidase (Escherichia coli, UniProt Q8VNN2); test: Dose response counterscreen for EBI2 assay utilizing the enzyme, b-galactosidase.; assay type: functional
Chain of Beta-galactosidase (Q8VNN2 whole entry): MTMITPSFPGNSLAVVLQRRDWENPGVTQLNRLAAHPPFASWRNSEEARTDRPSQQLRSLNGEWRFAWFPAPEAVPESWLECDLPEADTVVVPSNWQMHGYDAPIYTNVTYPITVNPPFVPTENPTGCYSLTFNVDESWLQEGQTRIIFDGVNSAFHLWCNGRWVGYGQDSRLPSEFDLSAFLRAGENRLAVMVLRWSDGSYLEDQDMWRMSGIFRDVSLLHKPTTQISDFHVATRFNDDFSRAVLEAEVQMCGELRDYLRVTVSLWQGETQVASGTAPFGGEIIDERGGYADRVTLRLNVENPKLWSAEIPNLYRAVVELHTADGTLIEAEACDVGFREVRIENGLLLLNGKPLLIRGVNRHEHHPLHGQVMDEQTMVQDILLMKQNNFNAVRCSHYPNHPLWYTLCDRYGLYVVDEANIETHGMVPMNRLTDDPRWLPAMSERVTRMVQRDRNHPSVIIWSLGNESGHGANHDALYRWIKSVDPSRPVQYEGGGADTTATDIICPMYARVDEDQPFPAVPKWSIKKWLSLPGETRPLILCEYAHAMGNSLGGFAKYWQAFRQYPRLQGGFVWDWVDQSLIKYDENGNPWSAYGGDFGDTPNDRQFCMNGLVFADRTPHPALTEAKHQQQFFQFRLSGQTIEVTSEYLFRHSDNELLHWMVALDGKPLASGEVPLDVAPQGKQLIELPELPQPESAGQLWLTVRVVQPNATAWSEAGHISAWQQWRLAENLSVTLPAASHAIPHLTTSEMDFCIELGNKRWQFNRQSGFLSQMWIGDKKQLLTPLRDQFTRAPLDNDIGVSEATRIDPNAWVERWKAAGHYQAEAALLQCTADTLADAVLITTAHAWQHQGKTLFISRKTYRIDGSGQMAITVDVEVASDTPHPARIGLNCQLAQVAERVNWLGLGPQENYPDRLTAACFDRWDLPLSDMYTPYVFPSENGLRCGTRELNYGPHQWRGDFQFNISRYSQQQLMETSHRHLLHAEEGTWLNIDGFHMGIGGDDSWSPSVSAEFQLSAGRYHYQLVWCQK

Chain of Phospholipase A2 (P04054 whole entry): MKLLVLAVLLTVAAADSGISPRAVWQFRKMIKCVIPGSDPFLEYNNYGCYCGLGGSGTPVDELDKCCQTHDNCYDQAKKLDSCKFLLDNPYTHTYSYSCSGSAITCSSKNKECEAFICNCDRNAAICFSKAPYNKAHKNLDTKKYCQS
T5 sequence (P49327 whole entry): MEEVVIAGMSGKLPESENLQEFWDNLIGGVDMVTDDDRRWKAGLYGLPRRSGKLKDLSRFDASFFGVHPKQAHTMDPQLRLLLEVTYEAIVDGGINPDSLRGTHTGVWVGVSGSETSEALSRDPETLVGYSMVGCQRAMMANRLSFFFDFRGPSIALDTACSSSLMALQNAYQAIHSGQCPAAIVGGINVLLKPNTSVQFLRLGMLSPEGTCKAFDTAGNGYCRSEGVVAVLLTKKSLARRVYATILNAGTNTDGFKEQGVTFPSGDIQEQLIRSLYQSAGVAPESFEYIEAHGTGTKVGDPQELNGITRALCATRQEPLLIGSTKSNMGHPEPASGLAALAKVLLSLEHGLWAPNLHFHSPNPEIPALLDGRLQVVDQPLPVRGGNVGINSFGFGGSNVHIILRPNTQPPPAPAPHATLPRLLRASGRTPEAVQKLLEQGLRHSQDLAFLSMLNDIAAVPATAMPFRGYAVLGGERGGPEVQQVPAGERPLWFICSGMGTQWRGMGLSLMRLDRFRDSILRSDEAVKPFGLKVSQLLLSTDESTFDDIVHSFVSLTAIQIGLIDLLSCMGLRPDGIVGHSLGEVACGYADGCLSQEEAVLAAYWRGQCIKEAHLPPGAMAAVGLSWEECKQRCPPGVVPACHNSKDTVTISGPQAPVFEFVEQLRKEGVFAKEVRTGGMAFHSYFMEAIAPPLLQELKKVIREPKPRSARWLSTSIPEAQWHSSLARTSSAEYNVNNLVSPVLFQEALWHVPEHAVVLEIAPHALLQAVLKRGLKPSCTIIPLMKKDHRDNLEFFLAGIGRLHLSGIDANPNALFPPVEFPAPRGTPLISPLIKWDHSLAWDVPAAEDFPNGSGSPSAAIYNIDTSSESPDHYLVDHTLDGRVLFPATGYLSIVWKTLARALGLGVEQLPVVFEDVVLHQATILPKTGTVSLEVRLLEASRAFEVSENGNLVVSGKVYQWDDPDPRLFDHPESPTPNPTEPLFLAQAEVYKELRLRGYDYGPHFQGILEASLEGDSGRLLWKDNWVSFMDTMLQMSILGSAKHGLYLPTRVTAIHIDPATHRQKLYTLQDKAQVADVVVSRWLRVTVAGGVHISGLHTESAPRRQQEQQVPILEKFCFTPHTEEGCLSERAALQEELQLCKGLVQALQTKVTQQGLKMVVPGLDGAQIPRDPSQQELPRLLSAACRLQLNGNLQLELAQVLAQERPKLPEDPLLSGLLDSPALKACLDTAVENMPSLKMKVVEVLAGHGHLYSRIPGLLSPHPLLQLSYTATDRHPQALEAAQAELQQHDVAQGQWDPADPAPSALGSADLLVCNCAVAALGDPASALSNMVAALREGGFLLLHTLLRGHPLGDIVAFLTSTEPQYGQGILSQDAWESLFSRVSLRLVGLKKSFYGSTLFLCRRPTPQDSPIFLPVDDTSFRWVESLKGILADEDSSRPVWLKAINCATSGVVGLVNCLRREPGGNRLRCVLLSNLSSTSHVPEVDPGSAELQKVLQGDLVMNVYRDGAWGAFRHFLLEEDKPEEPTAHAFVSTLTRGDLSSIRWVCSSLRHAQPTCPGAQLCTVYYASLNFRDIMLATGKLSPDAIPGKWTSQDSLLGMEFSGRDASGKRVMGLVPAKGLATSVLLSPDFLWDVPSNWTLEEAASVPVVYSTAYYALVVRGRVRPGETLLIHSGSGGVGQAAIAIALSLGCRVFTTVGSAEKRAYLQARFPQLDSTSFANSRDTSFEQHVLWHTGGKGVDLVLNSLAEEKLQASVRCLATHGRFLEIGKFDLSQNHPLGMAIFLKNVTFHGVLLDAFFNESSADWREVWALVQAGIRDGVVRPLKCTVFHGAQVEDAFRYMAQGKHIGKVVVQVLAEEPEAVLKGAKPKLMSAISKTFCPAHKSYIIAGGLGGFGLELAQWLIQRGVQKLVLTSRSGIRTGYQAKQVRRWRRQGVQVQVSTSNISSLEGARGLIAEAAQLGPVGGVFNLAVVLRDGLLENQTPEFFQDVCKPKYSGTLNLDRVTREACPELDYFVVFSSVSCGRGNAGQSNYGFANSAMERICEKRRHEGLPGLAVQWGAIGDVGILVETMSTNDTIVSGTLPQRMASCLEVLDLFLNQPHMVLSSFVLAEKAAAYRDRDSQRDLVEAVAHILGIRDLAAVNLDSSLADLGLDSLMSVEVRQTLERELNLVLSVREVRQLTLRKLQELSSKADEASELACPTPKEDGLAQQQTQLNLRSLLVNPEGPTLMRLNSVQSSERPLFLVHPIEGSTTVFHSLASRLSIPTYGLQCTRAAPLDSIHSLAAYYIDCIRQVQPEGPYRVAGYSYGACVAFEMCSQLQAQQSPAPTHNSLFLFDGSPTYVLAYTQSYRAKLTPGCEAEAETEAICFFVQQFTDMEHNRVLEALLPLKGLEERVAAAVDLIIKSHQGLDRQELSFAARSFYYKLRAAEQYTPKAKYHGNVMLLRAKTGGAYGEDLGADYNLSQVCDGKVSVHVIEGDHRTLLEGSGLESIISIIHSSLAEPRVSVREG
Chain of Nonstructural protein 1 (Q194T2 whole entry): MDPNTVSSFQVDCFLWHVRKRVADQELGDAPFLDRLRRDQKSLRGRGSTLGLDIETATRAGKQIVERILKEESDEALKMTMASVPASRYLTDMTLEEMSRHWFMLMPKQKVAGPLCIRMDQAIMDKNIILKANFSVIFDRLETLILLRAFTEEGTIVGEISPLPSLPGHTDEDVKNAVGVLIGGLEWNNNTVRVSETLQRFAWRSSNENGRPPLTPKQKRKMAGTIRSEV

For COc1ccccc1/C=C1\SC(=O)N(CCC(=O)NCCCn2ccnc2)C1=O, which EC50 (BJ [1]) is on record?
Its EC50 is > 133 µM (inactive).

What about the EC50 [2] of the same compound?
The EC50 was > 150 µM (not active).

What about the EC50 (BJ [3]) of the same compound?
The EC50 was > 150 µM (not active).

And the EC50 (BJ [4])?
The EC50 was > 150 µM (inconclusive).

And the AC50 [5]?
Its AC50 is 13.5 µM (active).

What about the AC50 (INS1) of the same compound?
The AC50 was 5.64 µM (active).

And the EC50 (BJ [6])?
Its EC50 is > 150 µM (not active).

With Cc1cc(C)nc(NC(=O)CSc2nn(-c3ccccc3)c(=S)s2)n1 as the compound, how does the IC50 [7] read?
Its IC50 is > 67.5 µM (inactive).

And the IC50 (HEK293)?
Its IC50 is > 67.5 µM (inactive).

For CC1CCN(c2nc(-c3ccccc3)c(C#N)c(=O)[nH]2)CC1, which Ki (fMet-Leu-Phe receptor) is on record?
Its Ki is > 66.7 µM (inactive).

Which results are given for O=C(CSc1nnc(-c2cccnc2)o1)Nc1nccs1?
AC50 [8]: 129 µM (active); IC50 (Nonstructural protein 1): 10.9 µM (active)

Which IC50 (cells) does the source give for Clc1ccc(-c2ccc(CNCc3ccccn3)o2)cc1 here?
The IC50 was 3.21 µM (active).

And the AC50 [8]?
The AC50 was 95.9 µM (active).

With Cc1cc(C(=O)N2CCCC(C(=O)c3ccc(Oc4ccccc4)cc3)C2)[nH]n1 (stereo not given) as the compound, how does the IC50 (Phospholipase A2) read?
The IC50 was 11.9 µM (active).

What about the IC50 (Cysteine protease ATG4B) of the same compound?
Its IC50 is 28.3 µM (inactive).

With O=C(NCc1ccco1)c1cc2ccccc2c(=O)o1 as the compound, how does the IC50 (Estrogen receptor) read?
The IC50 was 30.2 µM (not active).

For COc1ccc2c(c1)C(c1ccc(C)o1)=NNC(c1ccccc1)=N2, which IC50 (Phospholipase A2) is on record?
Its IC50 is 8.91 µM (active).

And the IC50 (Cysteine protease ATG4B)?
Its IC50 is 12.9 µM (active).

Which results are given for O=S(=O)(c1ccccc1)c1nnn2c1nc(NC1CCN(Cc3ccccc3)CC1)c1ccccc12?
IC50 (Fatty acid synthase [9]): 1.03 µM (active); IC50 [10]: 11.5 µM (active); IC50 (Fatty acid synthase [11]): 0.793 µM (active)

For CC(=O)Nc1cccc(C(=O)OCC(=O)Nc2nnc(-c3ccccc3)o2)c1, which AC50 [8] is on record?
Its AC50 is 96.8 µM (active).

For O=C(NCc1ccc2c(c1)OCO2)c1c(O)nc2sccn2c1=O, which IC50 [10] is on record?
The IC50 was 80 µM (inactive).

What about the CC50 [12] of the same compound?
The CC50 was > 40 µM (active).

Which AC50 [13] does the source give for CCCc1ccc(S(=O)(=O)NCCc2ccncc2)cc1 here?
Its AC50 is 34.1 µM (active).

What about the AC50 [14] of the same compound?
Its AC50 is 8.02 µM (active).

With Clc1ccc(OCCn2ccnc2)c(Cl)c1 as the compound, how does the IC50 [7] read?
The IC50 was > 67.5 µM (inactive).

What about the IC50 (HEK293) of the same compound?
The IC50 was > 67.5 µM (inactive).

Which IC50 (Beta-galactosidase) does the source give for O=C(/C=C/c1ccccc1)N1CCC(Cc2ccccc2)CC1 here?
Its IC50 is > 80 µM (inactive).
